Reference: ChEMBL document CHEMBL5143637, “Design, synthesis and antibacterial activity against pathogenic mycobacteria of conjugated hydroxamic acids, hydrazides and O-alkyl/O-acyl protected hydroxamic derivatives” (Bioorg Med Chem Lett, 2022)
In brackets after ≈: the same amount, converted by molar mass.

How the values were obtained:
Mycobacterium marinum = test: Antimycobacterial activity against Mycobacterium marinum ATCC BAA-535/M assessed as inhibition of mycobacterial growth incubated for 10 to 14 days by resazurin microtiter assay; format: functional; settings: time 10-14 day
BMDM = test: (§1) Cytotoxicity against C57BL/6 mouse BMDM cells assessed as reduction in cell viability measured after 24 hrs by resazurin dye based assay; format: toxicity; settings: mouse, bmdm, 24 h
[1] = system: Mycobacterium tuberculosis; test: Antimycobacterial activity against Mycobacterium tuberculosis mc2 6230 assessed as inhibition of mycobacterial growth incubated for 10 to 14 days by resazurin microtiter assay; format: functional; settings: time 10-14 day
[2] = system: Mycobacteroides abscessus; test: Antimycobacterial activity against Mycobacterium abscessus CIP104536T with rough morphotype assessed as inhibition of mycobacterial growth incubated for 3 to 5 days by resazurin microtiter assay; format: functional; settings: time 3-5 day
[3] = system: Mycobacteroides abscessus; test: Antimycobacterial activity against Mycobacterium abscessus CIP104536T with smooth morphotype assessed as inhibition of mycobacterial growth incubated for 3 to 5 days by resazurin microtiter assay; format: functional; settings: time 3-5 day
[4] = Inhibition of Mycobacterium tuberculosis H37Rv PDF expressed in Escherichia coli using N-formyl-methionine-alanine-serine as substrate incubated for 2.5 mins by fluorescence based microplate reader analysis
[5] = Selectivity index, ratio of MIC90 for antimycobacterial activity against Mycobacterium smegmatis mc2 155 harbouring pMyC empty vector to MIC90 for antimycobacterial activity against wild type Mycobacterium smegmatis mc2 155; format: functional
[6] = system: Mycolicibacterium smegmatis; test: Antimycobacterial activity against Mycobacterium smegmatis mc2 155 harbouring pMyC empty vector assessed as inhibition of mycobacterial growth incubated for 3 to 5 days by resazurin microtiter assay; format: functional; settings: time 3-5 day
[7] = system: Mycolicibacterium smegmatis; test: Antimycobacterial activity against wild type Mycobacterium smegmatis mc2 155 assessed as inhibition of mycobacterial growth incubated for 3 to 5 days by resazurin microtiter assay; format: functional; settings: time 3-5 day
[8] = Selectivity index, ratio of MIC90 for antimycobacterial activity against Mycobacterium smegmatis mc2 155 harbouring pMyC::PDFMtb overexpression mutant to MIC90 for antimycobacterial activity against wild type Mycobacterium smegmatis mc2 155; format: functional
[9] = system: Mycolicibacterium smegmatis; test: Antimycobacterial activity against Mycobacterium smegmatis mc2 155 harbouring pMyC::PDFMtb overexpression mutant assessed as inhibition of mycobacterial growth incubated for 3 to 5 days by resazurin microtiter assay; format: functional; settings: time 3-5 day
[10] = Selectivity index, ratio of MIC50 for antimycobacterial activity against Mycobacterium smegmatis mc2 155 harbouring pMyC::PDFMtb overexpression mutant to MIC50 for antimycobacterial activity against wild type Mycobacterium smegmatis mc2 155; format: functional
[11] = Selectivity index, ratio of MIC50 for antimycobacterial activity against Mycobacterium smegmatis mc2 155 harbouring pMyC empty vector to MIC50 for antimycobacterial activity against wild type Mycobacterium smegmatis mc2 155; format: functional
[12] = system: Mycobacterium tuberculosis; test: Antimycobacterial activity against Mycobacterium tuberculosis H37Rv assessed as inhibition of bacterial growth incubated for 8 days; format: functional; settings: 192 h, time 8 day
[13] = Cytotoxicity against mouse BMDM cells; format: toxicity, cell-based; settings: BMDM cells (bone marrow-derived macrophages)
[14] = as §1; format: toxicity; settings: C57BL/6, mouse, BMDM cells (bone marrow-derived macrophages)

Compound	MIC50 (Mycobacterium marinum) [µg/mL]	MIC90 (Mycobacterium marinum) [µg/mL]	MIC50 [1] [µg/mL]	MIC90 [1] [µg/mL]	MIC50 [2] [µg/mL]	MIC50 [3] [µg/mL]	CC50 at 24 h [14] [µg/mL]	MIC90 [2] [µg/mL]	MIC90 [3] [µg/mL]	also measured
Cl.O=C(/C=C/c1ccncc1)NO	12.6	54	32.1	33.6	> 100	> 100				CC50 (BMDM): < 10 µg/mL
CCCC[C@H](CN(O)C=O)C(=O)N1CCC[C@H]1C(=O)Nc1ccccn1										IC50 [4]: 0.0695 µM
CO[C@H]1/C=C/O[C@@]2(C)Oc3c(C)c(O)c4c(O)c(c(/C=N/N5CCN(C)CC5)c(O)c4c3C2=O)NC(=O)/C(C)=C\C=C\[C@H](C)[C@H](O)[C@@H](C)[C@@H](O)[C@@H](C)[C@H](OC(C)=O)[C@@H]1C [RIFAMPIN]										Ratio [5]: 1.09; MIC50 [6]: 0.57 µg/mL (≈ 0.693 µM); MIC90 [6]: 2.83 µg/mL (≈ 3.44 µM); MIC50 [7]: 0.76 µg/mL (≈ 0.924 µM); MIC90 [7]: 0.76 µg/mL (≈ 0.924 µM); Ratio [8]: 0.93; MIC50 [9]: 0.63 µg/mL (≈ 0.766 µM); MIC90 [9]: 2.4 µg/mL (≈ 2.92 µM); Ratio [10]: 0.83; Ratio [11]: 0.75
NNC(=O)c1ccncc1 [ISONIAZID]	2.8 (≈ 20.4 µM)	9.2 (≈ 67.1 µM)	0.07 (≈ 0.51 µM)	0.11 (≈ 0.802 µM)						Ratio [5]: 0.86; MIC [12]: 0.1 µg/mL (≈ 0.729 µM); MIC50 [6]: 1.3 µg/mL (≈ 9.48 µM); MIC90 [6]: 2.7 µg/mL (≈ 19.7 µM); MIC50 [7]: 1.4 µg/mL (≈ 10.2 µM); MIC90 [7]: 3.1 µg/mL (≈ 22.6 µM); Ratio [8]: 0.8; MIC50 [9]: 1.2 µg/mL (≈ 8.75 µM); MIC90 [9]: 2.5 µg/mL (≈ 18.2 µM); Ratio [10]: 0.84; Ratio [11]: 0.9; CC50 [13]: > 20 µg/mL
NNC(=O)/C=C/c1ccc(-c2ccccc2)cc1	22.2 (≈ 93.2 µM)	71.5 (≈ 300 µM)	13.1 (≈ 55 µM)	22 (≈ 92.3 µM)	18.9 (≈ 79.3 µM)	> 100	125 (≈ 525 µM)	> 100		Ratio [5]: 0.75; MIC50 [6]: 7.2 µg/mL (≈ 30.2 µM); MIC90 [6]: 43.8 µg/mL (≈ 184 µM); MIC50 [7]: 9.6 µg/mL (≈ 40.3 µM); MIC90 [7]: 53.6 µg/mL (≈ 225 µM); Ratio [8]: > 3.7; MIC50 [9]: 56.6 µg/mL (≈ 238 µM); MIC90 [9]: > 200 µg/mL; Ratio [10]: 5.9; Ratio [11]: 0.75
NC[C@H]1O[C@H](O[C@H]2[C@H](O)[C@@H](O[C@H]3O[C@H](CO)[C@@H](O)[C@H](N)[C@H]3O)[C@H](N)C[C@@H]2N)[C@H](O)[C@@H](O)[C@@H]1O [KANAMYCIN]										Ratio [5]: 1.14; MIC50 [6]: 0.48 µg/mL (≈ 0.991 µM); MIC90 [6]: 1.07 µg/mL (≈ 2.21 µM); MIC50 [7]: 0.4 µg/mL (≈ 0.826 µM); MIC90 [7]: 0.94 µg/mL (≈ 1.94 µM); Ratio [8]: 0.93; MIC50 [9]: 0.49 µg/mL (≈ 1.01 µM); MIC90 [9]: 0.87 µg/mL (≈ 1.8 µM); Ratio [10]: 1.23; Ratio [11]: 1.2
CCCCCC(=O)ONC(=O)/C=C/c1ccc(OC)cc1	21.2 (≈ 72.8 µM)	46.7 (≈ 160 µM)	32.8 (≈ 113 µM)	61.4 (≈ 211 µM)	> 100	63 (≈ 216 µM)	> 125		76.5 (≈ 263 µM)	
O=C(/C=C/c1cccc(F)c1)NO	3.3 (≈ 18.2 µM)	25.9 (≈ 143 µM)	13.5 (≈ 74.5 µM)	> 100	7.6 (≈ 42 µM)	12.2 (≈ 67.3 µM)	< 10	68.4 (≈ 378 µM)	> 100	
CCCC(=O)ONC(=O)/C=C/C=C/c1ccc(F)cc1	7.9 (≈ 28.5 µM)	22.4 (≈ 80.8 µM)	11.9 (≈ 42.9 µM)	59.3 (≈ 214 µM)	> 100	> 100	> 125			
O=C(/C=C/C=C/c1ccncc1)NO	26.9 (≈ 141 µM)	> 100	19.4 (≈ 102 µM)	27.6 (≈ 145 µM)	> 100	> 100	< 10			
NCC[C@H](O)C(=O)N[C@@H]1C[C@H](N)[C@@H](O[C@H]2O[C@H](CN)[C@@H](O)[C@H](O)[C@H]2O)[C@H](O)[C@H]1O[C@H]1O[C@H](CO)[C@@H](O)[C@H](N)[C@H]1O [AMIKACIN]	0.62 (≈ 1.06 µM)	1.7 (≈ 2.9 µM)	0.24 (≈ 0.41 µM)	0.37 (≈ 0.632 µM)	4.3 (≈ 7.34 µM)	2.3 (≈ 3.93 µM)		5.9 (≈ 10.1 µM)	3.4 (≈ 5.81 µM)	CC50 [13]: > 90 µg/mL
CCCCOc1ccc(/C=C/C=C/C(=O)NN)cc1	> 100		> 100		> 100	> 100	65 (≈ 250 µM)			
O=C(/C=C/c1ccccc1)NO	6.7 (≈ 41.1 µM)	32.4 (≈ 199 µM)	28.8 (≈ 176 µM)	40.7 (≈ 249 µM)	> 100	> 100	< 10			
O=C(/C=C/c1ccc(C(F)(F)F)cc1)NO	14.1 (≈ 61 µM)	> 100	14.4 (≈ 62.3 µM)	> 100	6.3 (≈ 27.3 µM)	37.2 (≈ 161 µM)	< 10	21.9 (≈ 94.7 µM)	39.6 (≈ 171 µM)	
O=C(/C=C/C=C/c1ccc(-c2ccccc2)cc1)NO	> 100		> 100		6.9 (≈ 26 µM)	31.8 (≈ 120 µM)	> 125	7.5 (≈ 28.3 µM)	> 100	
